How the values were obtained:
AtAFB5 [1] = target: T1, AtAFB5 (Arabidopsis thaliana, UniProt Q9LTX2); assay: SPR relative binding (co-receptor complex formation with Aux/IAA7 degron), AtAFB5; conditions: 50 μM compound
T1 construct: His10 (N, cleaved yes); eGFP (N, cleaved yes); FLAG (N, cleaved yes); made in house; host or cells: baculovirus; Trichoplusia ni Hi5 cells (virus generated in Sf9)
Experimental: (§1) Auxin binding assays using surface plasmon resonance (SPR) were performed on a Biacore 2000 as described previously.[3], [18], [23] Protein was stored on ice and protein concentrations were assayed by A280 nm measurement (nanodrop, Thermo Scientific). Briefly, AtAux/IAA7 degron peptide was immobilized on streptavidin‐coated SPR chips, and binding was measured in the presence of IAA or auxin analogue by recruitment of the TIR1/AFB protein from solution as the co‐receptor complex formed on the chip. Kinetic analyses were performed by single cycle kinetics on a Biacore T200 (Cytiva Life Sciences), titrating compounds against a fixed concentration of TIR1 before injection. The degron peptide density on the chips was controlled so that R max < 300 Response UNits (RU).

[2] = test system: Arabidopsis thaliana afb5‐1 mutant line; type: in vivo; conditions: for GR50 (DW % of NT): dry weight at 14 DAT; for Resistance ratio (afb5‐1 vs WT), DW: ratio of dry weight GR50 values, foliar application
Experimental: (§2) Bioassays were carried out with the model species Arabidopsis thaliana. The wild type (WT) Col‐0 line was compared to an afb5‐1 mutant line in a Col‐0 background containing a missense mutation of R609K.[11] A. thaliana seeds were sown on Metro‐mix 360 potting mix (Sungro Horticulture) supplemented with vermiculite and stratified for 3 days at 4 °C in the dark. Flats were moved to a growth chamber (as above) and a plastic lid was placed on the flat. On germination, the lid was removed. After 2 weeks in the growth chamber, seedlings were transplanted into 3‐in. pots with Metro‐mix 360 potting mix and moved to a greenhouse. The greenhouse was maintained at a day/night temperature of 23/22 °C and supplemented with light to complete a 16 h photoperiod. Plants were allowed to recover from transplanting for 1 week prior to applications. A. thaliana seedlings were sprayed with test compounds at five rates with four replications. Tests included nontreated and solvent check controls. Individual compound doses varied and were based on plate test data or anecdotal potency. Compounds were formulated as technical material and were initially dissolved in 1 part 97:3 (v/v) acetone: dimethylsufoxide (DMSO) followed by 5 parts 1.5% (v/v) Agridex crop oil concentrate in distilled water to give a final concentration of 1.25% (v/v) Agridex. Formulated compounds were sprayed at a volume of 187 L ha^−1 at a spray height of 43 cm above the plants with an overhead Mandel track sprayer set with 8002 E Tee jet nozzle. Plants were treated at rosette stage just prior to or at initiation of bolting. After spray application, plants were allowed to dry then moved back to the greenhouse. Plants were grown in the greenhouse (same conditions as above) for 2 weeks until harvest. Visual injury/growth reduction observations were made at 7 and 14 days after treatment (DAT) and scored where 0% = no growth reduction and 100% = complete growth reduction or plant death. At 14 DAT the plants were harvested and dried to collect dry weight (DW) biomass.
(§3) The data collected in the foliar application of compounds generated a measure of sensitivity or dose response. The data was analyzed by regression in JMP 10.0 and fit to a nonlinear exponential three parameter fit model:
(§4) where a is the asymptote, b is the scale and c is the rate of growth. The model was used to determine the herbicidal dose that caused 50% reduction in growth (GR50). GR50 values were compared between mutant and WT to give an indication of fold resistance over WT (Table 3). A log‐logistic model[24] was also used to fit the data and gave similar GR50 values with greater standard errors without changing the pattern of responsiveness.

[3] = test system: Arabidopsis thaliana afb5‐1 seedlings; assay: Root growth inhibition bioassay, afb5‐1 mutant; type: in vivo; conditions: afb5‐1 vs WT dose-response, 8 days
Experimental: (§5) A. thaliana seed was surface sterilized in 10 mL of 50% bleach and two drops of Tween‐20 for 12 min and rinsed six times with sterile water. Sterile growth media consisted of half‐strength Murashige and Skoog salts supplemented with 0.4% agar and 0.8% sucrose. In a laminar flow hood, 8 mL of liquid media was transferred to sterile test‐tubes placed in a heat block to maintain media in a liquid state. Compounds were previously diluted in 50/50 DMSO/water to a known molar concentration. A 50‐μL aliquot of diluted compound was added to each tube to give a specified final concentration, normally 10, 1, 0.1, 0.01 or 0.001 μM. A single tube was treated with solvent only as a control. Test compounds were mixed into the media by pipetting up and down three times, then 6 mL of media with test compound was added to one well in a six‐well plate, working from low‐to‐high concentration, and allowed to solidify in the laminar flow hood. Approximately 15 sterilized seeds were placed on the solidified surface and the remaining 2 mL of liquid media was added to cover and disperse seeds. Plates were sealed with paraffin and moved to a Conviron growth chamber set to 60% humidity, 25 °C and light intensity 100 μE m^2 s^−1 with a 16 h photoperiod. After 8 days primary root measurements of five random plants were taken by removing plants from media and measuring with a ruler. Treatments were compared against the solvent control to determine percentage root growth inhibition. Each experiment was run twice and averages were combined for analysis.

[4] = test system: Arabidopsis thaliana wild type (WT) Col‐0; assay: Foliar efficacy bioassay, wild type; type: in vivo; conditions: foliar application; for GR50 (DW % of NT): dry weight at 14 DAT
Experimental: as §2, §3, §4

[5] = test system: Arabidopsis thaliana Col‐0 seedlings; assay: Root growth inhibition bioassay, wild type; type: in vivo; conditions: 8 days, up to 10 μM
Experimental: as §5, with “Treatments were compared against the solvent control to determine percentage root growth inhibition. Each experiment was run twice and averages were combined for analysis.” left out

AtTIR1 [6] = target: T2, AtTIR1 (Arabidopsis thaliana, UniProt Q570C0); assay: SPR relative binding (co-receptor complex formation with Aux/IAA7 degron), AtTIR1; conditions: 50 μM compound
T2 construct: His10 (N, cleaved yes); eGFP (N, cleaved yes); FLAG (N, cleaved yes); made in house; host or cells: baculovirus; Trichoplusia ni Hi5 cells (virus generated in Sf9)
T2 sequence (Q570C0 whole entry, other chains not shown): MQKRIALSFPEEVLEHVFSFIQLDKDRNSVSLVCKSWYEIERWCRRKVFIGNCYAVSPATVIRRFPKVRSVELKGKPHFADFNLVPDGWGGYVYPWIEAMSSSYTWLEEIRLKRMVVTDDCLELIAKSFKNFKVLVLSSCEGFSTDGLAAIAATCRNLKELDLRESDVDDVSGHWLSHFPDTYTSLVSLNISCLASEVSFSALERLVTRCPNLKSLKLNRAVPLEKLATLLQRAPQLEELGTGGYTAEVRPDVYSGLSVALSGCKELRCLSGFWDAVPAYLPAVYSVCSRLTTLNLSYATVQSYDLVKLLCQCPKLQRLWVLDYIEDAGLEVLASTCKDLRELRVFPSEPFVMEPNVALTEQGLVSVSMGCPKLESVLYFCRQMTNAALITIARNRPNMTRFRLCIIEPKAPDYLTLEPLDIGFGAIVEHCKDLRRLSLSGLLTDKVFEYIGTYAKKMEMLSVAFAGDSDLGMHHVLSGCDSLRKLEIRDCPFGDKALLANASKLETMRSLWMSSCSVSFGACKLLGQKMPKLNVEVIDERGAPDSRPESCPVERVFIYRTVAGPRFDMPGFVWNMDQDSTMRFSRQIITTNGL
T2 sequence (Q39255 whole entry partner, other chains not shown): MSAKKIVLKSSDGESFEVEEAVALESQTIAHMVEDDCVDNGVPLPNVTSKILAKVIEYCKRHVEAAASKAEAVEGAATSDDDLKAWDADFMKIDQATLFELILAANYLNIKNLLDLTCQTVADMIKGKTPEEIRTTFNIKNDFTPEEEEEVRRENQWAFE
Experimental: as §1

AtAFB5 [7] = target: T1, AtAFB5; assay: biochemical; type: binding
Experimental: as §1

AtTIR1 [8] = target: T2, AtTIR1; assay: biochemical; type: binding
Experimental: as §1

AtAFB2 = target: T3, AtAFB2 (Arabidopsis thaliana, UniProt Q9LW29); assay: SPR relative binding (co-receptor complex formation with Aux/IAA7 degron), AtAFB2; conditions: 50 μM compound
T3 construct: His10 (N, cleaved yes); eGFP (N, cleaved yes); FLAG (N, cleaved yes); made in house; host or cells: baculovirus; Trichoplusia ni Hi5 cells (virus generated in Sf9)
T3 sequence (Q9LW29 whole entry, other chains not shown): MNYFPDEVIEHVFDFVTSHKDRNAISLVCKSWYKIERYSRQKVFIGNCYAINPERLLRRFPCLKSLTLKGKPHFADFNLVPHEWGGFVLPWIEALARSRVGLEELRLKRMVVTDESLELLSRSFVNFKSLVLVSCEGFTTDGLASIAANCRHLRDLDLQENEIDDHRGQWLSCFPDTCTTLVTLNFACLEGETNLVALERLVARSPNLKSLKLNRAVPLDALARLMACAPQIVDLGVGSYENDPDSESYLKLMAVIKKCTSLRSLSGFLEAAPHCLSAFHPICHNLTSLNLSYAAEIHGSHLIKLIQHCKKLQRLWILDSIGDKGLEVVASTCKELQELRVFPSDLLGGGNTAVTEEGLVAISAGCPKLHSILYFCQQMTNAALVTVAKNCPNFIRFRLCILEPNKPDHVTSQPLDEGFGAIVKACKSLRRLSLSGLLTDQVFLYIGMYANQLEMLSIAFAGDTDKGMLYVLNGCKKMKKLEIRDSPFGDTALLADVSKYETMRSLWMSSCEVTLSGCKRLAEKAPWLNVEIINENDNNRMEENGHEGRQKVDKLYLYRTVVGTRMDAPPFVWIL
T3 sequence (Q39255 whole entry partner, other chains not shown): as the sequence (Q39255 whole entry partner, other chains not shown) above
Experimental: as §1

T1 sequence (Q9LTX2 whole entry, other chains not shown): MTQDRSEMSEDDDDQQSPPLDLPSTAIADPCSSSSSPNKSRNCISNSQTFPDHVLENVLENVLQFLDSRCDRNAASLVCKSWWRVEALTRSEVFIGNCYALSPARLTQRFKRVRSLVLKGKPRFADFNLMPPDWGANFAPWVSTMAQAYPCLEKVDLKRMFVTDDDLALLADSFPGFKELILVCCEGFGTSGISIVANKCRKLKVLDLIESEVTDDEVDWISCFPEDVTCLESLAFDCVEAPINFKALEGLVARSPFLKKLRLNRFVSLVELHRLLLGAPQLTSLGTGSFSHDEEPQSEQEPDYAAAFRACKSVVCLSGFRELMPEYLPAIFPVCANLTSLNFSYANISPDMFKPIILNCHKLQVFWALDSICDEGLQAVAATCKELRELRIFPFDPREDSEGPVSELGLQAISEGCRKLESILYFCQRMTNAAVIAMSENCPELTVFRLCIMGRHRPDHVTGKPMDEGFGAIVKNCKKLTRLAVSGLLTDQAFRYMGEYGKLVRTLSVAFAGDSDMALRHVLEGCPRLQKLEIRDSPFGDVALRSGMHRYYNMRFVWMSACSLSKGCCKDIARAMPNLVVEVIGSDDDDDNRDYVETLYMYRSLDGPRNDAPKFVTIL
T1 sequence (Q39255 whole entry partner, other chains not shown): as the sequence (Q39255 whole entry partner, other chains not shown) above

SMILES | Relative binding (in words) (AtAFB5 [1]; compared to IAA) | GR50 (DW % of NT) ([2]; afb5‐1, foliar application) | Resistance ratio (afb5‐1 vs WT), DW [2] | Resistance of afb5‐1 in root growth inhibition (in words) [3] | GR50 (DW % of NT) [4] | GR50 (visual injury) ([4]; visual injury) | Primary root growth inhibition (in words) [5] | Relative binding (in words) (AtTIR1 [6]; compared to IAA) | Kd (AtAFB5 [7]) | Kd (AtTIR1 [8]) | Relative binding (in words) (AtAFB2; compared to IAA) | % of IAA binding (AtAFB5 [1]; normalized to IAA = 100%) | Foliar phytotoxicity / resistance (in words) ([2]; afb5‐1, foliar application) | Foliar phytotoxicity (in words) [4] | % of IAA binding (AtTIR1 [6]; normalized to IAA = 100%) | % of IAA binding (AtAFB2; normalized to IAA = 100%)
Nc1c(Cl)c(Cl)nc(C(=O)O)c1Cl [Picloram] | relatively low binding | 996 g ai ha^−1 | 72.7 | considerable resistance | 13.7 g ai ha^−1 | 202 g ai ha^−1 | low level of phytotoxicity | relatively low binding | 107 µM | 319 µM | relatively low binding | – | – | – | – | –
O=C(O)c1c(Cl)ccc2cc(Cl)cnc12 [Quinclorac] | – | 1002 g ai ha^−1 | 1 | No resistance | 1015 g ai ha^−1 | – | very low root growth inhibition | – | – | – | – | < 5% | did not provide much phytotoxicity | did not provide much phytotoxicity | < 5% | < 5%
